Here are results for eight molecules from PubChem BioAssay (NCI).

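Method: 48-hour compound exposure of cells in 96-well plates, five concentrations, linear interpolation of endpoints. TGI: concentration producing complete growth inhibition.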

Some test systems named below: OVCAR-8 ovarian; MDA-MB-435; MDA-MB-231 breast; SK-MEL-2 melanoma; T-47D breast; MCF7 breast; HS 578T breast; U251 CNS; 786-0 renal; OVCAR-3 ovarian; SF-295 CNS; TK-10 renal; OVCAR-4 ovarian; NCI-H522 lung; M14 melanoma; SF-268 CNS; NCI-H460 lung; SW-620 colon.
Holding throughout (assay): DTP human tumour cell line panel, 48 h

`CC1=C[C@@H]2[C@@H](CC(CO)=C[C@H]3[C@@H]4C(C)(C)[C@]4(OCC(C)C)[C@H](OCC(C)C)[C@@H](C)[C@]23O)C1=O`: the TGI (commonly the concentration giving total growth inhibition) with OVCAR-8 ovarian is above 6.08 µM; in the test on MDA-MB-435, above 6.31 µM; with MDA-MB-231 breast it was 3.39 µM; in the test on SK-MEL-2 melanoma, above 6.43 µM; with T-47D breast, above 8.32 µM; with MCF7 breast, 6.89 µM. The TGI with HS 578T breast is 2.71 µM; with U251 CNS it was 4.15 µM; in the test on 786-0 renal it was above 6.54 µM; with OVCAR-3 ovarian, 5.46 µM; in the test with SF-295 CNS, above 8.32 µM; in the test on TK-10 renal, above 5.97 µM. The TGI in the test on OVCAR-4 ovarian was above 8.32 µM; with NCI-H522 lung, 4.58 µM; with M14 melanoma it was above 5.15 µM; in the test with SF-268 CNS, above 8.32 µM; in the test with NCI-H460 lung, above 8.32 µM; in the test on SW-620 colon, 4.68 µM.
As to `COc1cccc(Nc2nc(N)nc(N)c2N=O)c1`, the TGI in the test on OVCAR-8 ovarian is 40.9 µM; in the test on MDA-MB-435, 39.9 µM; in the test with MDA-MB-231 breast, above 100 µM; in the test with SK-MEL-2 melanoma it was above 100 µM; in the test on T-47D breast, 24.3 µM; in the test with MCF7 breast it was above 100 µM. The concentration for total growth inhibition (TGI) is 82.4 µM in the test on HS 578T breast; above 100 µM in the test on U251 CNS; 70.2 µM in the test on 786-0 renal; above 100 µM with OVCAR-3 ovarian; 76.6 µM with SF-295 CNS; 60.5 µM in the test with TK-10 renal. The TGI in the test with OVCAR-4 ovarian was 78.5 µM; in the test on NCI-H522 lung, 29.5 µM; with M14 melanoma it was 86.6 µM; with SF-268 CNS, above 100 µM; with NCI-H460 lung it was 29.1 µM; with SW-620 colon, above 100 µM.
Regarding `Cn1c(=O)c2c(nc3n(C)c(=O)c4ccccc4n23)n(C)c1=O`, the TGI with OVCAR-8 ovarian, in the test on MDA-MB-435, in the test with MDA-MB-231 breast, in the test with SK-MEL-2 melanoma, with T-47D breast and with MCF7 breast was above 100 µM throughout. Besides, the TGI with HS 578T breast is above 100 µM; with U251 CNS, above 100 µM; in the test with 786-0 renal, above 100 µM; in the test on OVCAR-3 ovarian it was above 100 µM; with SF-295 CNS it was above 91.4 µM; with TK-10 renal it was above 100 µM. Moreover, the TGI in the test on OVCAR-4 ovarian, in the test on NCI-H522 lung, with M14 melanoma, in the test on SF-268 CNS, in the test on NCI-H460 lung and with SW-620 colon was above 100 µM throughout.
For `OC(CC(O)(C(F)(F)F)C(F)(F)F)C(O)c1ccco1` (centres undefined), the TGI with OVCAR-8 ovarian, in the test with MDA-MB-435, with MDA-MB-231 breast, in the test with SK-MEL-2 melanoma, in the test with T-47D breast and in the test with MCF7 breast was above 10 µM throughout. Further, the TGI in the test on HS 578T breast, in the test with U251 CNS, in the test with 786-0 renal, with OVCAR-3 ovarian, in the test on SF-295 CNS and with TK-10 renal was above 10 µM in each case. Moreover, the concentration for total growth inhibition (TGI) with OVCAR-4 ovarian, in the test with NCI-H522 lung, with M14 melanoma, in the test on SF-268 CNS, in the test with NCI-H460 lung and in the test with SW-620 colon was above 10 µM each time.
On to `Cc1cc(O)c2c(c1)CC(O)C1=C2C(=O)c2c(O)ccc(OC3CC(O)C(OC4CC(OC5CCC(O)C(C)O5)C(O)C(C)O4)C(C)O3)c2C1=O` (centres undefined), for which the TGI worked out at 3.51 µM in the test with OVCAR-8 ovarian; 2.82 µM with MDA-MB-435; 3.58 µM with MDA-MB-231 breast; 3.83 µM in the test on SK-MEL-2 melanoma; 8.38 µM in the test on T-47D breast; 2.96 µM in the test with MCF7 breast. Moreover, the concentration for total growth inhibition (TGI) came to 6.36 µM in the test with HS 578T breast; 3.22 µM in the test with U251 CNS; 3.47 µM with 786-0 renal; 2.16 µM in the test on OVCAR-3 ovarian; 7.47 µM in the test on SF-295 CNS; 4.03 µM in the test with TK-10 renal. Moreover, the concentration for total growth inhibition (TGI) with OVCAR-4 ovarian is 3.45 µM; with NCI-H522 lung, 2.52 µM; with M14 melanoma it was 3.04 µM; in the test with SF-268 CNS, 3.43 µM; with NCI-H460 lung, 4.85 µM; in the test with SW-620 colon, 3.14 µM.
As for `COC(=O)[C@@H]1OC(C)(c2ccccc2)O[C@H]1C(=O)OC`, the concentration for total growth inhibition (TGI) in the test on OVCAR-8 ovarian, in the test with MDA-MB-435, in the test on MDA-MB-231 breast, in the test with SK-MEL-2 melanoma, in the test on T-47D breast and in the test with MCF7 breast was above 100 µM throughout. The concentration for total growth inhibition (TGI) with HS 578T breast, in the test on U251 CNS, with 786-0 renal, in the test on OVCAR-3 ovarian, in the test with SF-295 CNS and with TK-10 renal was above 100 µM throughout. The TGI with OVCAR-4 ovarian, in the test on NCI-H522 lung, in the test with M14 melanoma, with SF-268 CNS, in the test with NCI-H460 lung and in the test on SW-620 colon was above 100 µM in each case.
For the molecule `O=C(c1cccs1)N(Cc1cccnc1)C(=S)N(Cc1cccnc1)C(=O)c1cccs1`, the total growth inhibition concentration (TGI) with OVCAR-8 ovarian, in the test on MDA-MB-435, with MDA-MB-231 breast, in the test on SK-MEL-2 melanoma, with T-47D breast and with MCF7 breast was above 100 µM each time. The TGI is above 100 µM in the test with HS 578T breast; above 100 µM in the test on U251 CNS; 34.3 µM in the test on 786-0 renal; above 100 µM in the test with OVCAR-3 ovarian; above 100 µM in the test on SF-295 CNS; above 100 µM in the test on TK-10 renal. Also, the concentration for total growth inhibition (TGI) in the test on OVCAR-4 ovarian, with NCI-H522 lung, in the test with M14 melanoma, in the test with SF-268 CNS, with NCI-H460 lung and in the test on SW-620 colon was above 100 µM throughout.
Regarding `O=C(CC(=O)N1N=C(N(c2ccccc2)c2ccccc2)CC1c1ccccc1)Nc1ccccc1` (centres undefined), the TGI with OVCAR-8 ovarian, in the test with MDA-MB-435, in the test with MDA-MB-231 breast, in the test with SK-MEL-2 melanoma, with T-47D breast and in the test on MCF7 breast was above 100 µM each time. Also, the concentration for total growth inhibition (TGI) in the test on HS 578T breast, with U251 CNS, in the test on 786-0 renal, in the test with OVCAR-3 ovarian, in the test on SF-295 CNS and in the test on TK-10 renal was above 100 µM in each case. The concentration for total growth inhibition (TGI) with OVCAR-4 ovarian, in the test on NCI-H522 lung, with M14 melanoma, in the test with SF-268 CNS, in the test with NCI-H460 lung and with SW-620 colon was above 100 µM each time.
